Test results from patent US8648086B2, “5,6-bicyclic heteroaryl-containing urea compounds as kinase inhibitors” (Ascepion Pharmaceuticals, Inc., priority 2009, dated 2014).
Where a name gives a salt, the structure may show the parent alone.

Assays:
[1] = biological target: T1, PDGFRβ (Homo sapiens, UniProt P09619); test: PDGFRβ cell-based assay (phospho-PDGFRβ ELISA, transfected CHO cells); conditions: compound at 100 nM, read-out: % PDGFRβ kinase activity remains
T1 construct: expressed in transfected cells; host or cells: CHO cells, pcDNA3.1 plasmid
T1 sequence (P09619 33-1106, species assumed): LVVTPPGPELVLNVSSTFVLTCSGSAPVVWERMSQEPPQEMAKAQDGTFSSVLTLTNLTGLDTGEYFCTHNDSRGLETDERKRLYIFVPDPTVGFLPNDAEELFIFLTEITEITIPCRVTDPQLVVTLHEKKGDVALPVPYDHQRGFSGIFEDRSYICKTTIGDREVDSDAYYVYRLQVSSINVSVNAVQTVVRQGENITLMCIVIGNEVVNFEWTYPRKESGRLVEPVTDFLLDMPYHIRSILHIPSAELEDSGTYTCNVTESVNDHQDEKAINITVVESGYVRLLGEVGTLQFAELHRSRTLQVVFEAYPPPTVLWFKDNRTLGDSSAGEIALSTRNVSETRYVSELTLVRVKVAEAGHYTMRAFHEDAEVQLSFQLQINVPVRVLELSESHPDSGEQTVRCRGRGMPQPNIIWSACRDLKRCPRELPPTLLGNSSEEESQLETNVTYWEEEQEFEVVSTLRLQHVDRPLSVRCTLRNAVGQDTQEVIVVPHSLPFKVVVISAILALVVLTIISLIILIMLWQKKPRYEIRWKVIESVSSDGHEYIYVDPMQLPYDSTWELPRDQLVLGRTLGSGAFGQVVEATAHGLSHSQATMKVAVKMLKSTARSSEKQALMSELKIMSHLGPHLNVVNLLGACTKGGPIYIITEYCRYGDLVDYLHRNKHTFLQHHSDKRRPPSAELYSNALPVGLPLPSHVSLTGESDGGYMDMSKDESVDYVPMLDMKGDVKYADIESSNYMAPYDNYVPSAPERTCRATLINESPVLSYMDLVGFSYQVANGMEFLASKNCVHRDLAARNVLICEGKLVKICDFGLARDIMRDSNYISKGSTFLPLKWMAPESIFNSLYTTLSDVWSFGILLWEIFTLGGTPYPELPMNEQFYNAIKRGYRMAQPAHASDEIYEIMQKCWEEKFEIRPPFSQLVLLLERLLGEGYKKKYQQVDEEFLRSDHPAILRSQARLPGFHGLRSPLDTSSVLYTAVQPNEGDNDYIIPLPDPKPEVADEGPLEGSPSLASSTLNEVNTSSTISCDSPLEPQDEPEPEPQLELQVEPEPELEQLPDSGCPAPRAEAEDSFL
Description: A standard cell-based assay for PDGFRβ kinase activity can be used to test a compound of this invention and to identify PDGFRβ antagonists.
Specifically, a compound to be tested was first dissolved in DMSO to a concentration of 10 mM and stored at −20° C. The activity of PDGFRβ in cells depends on the phosphorylation level of its intracellular domain induced by the ligand. In order to express PDGFRβ in the cell, full length PDGFRβ sequence was cloned into PC-DNA3.1 vector. The plasmid was then transfected into CHO cells. After 48 hours following the transfection, the expression of PDGFRβ in transfected CHO cells was confirmed by regular western blotting.
To screen the compound of this invention, the ELISA kit (R&D Systems, Minneapolis, Minn., USA) was used. One day before the screening, CHO cells transfected with full length PDGFRβ plasmid were grown in DMEM medium without the presence of serum. On the day of screening, various concentrations of compounds (from 0.5 nM to 500 nM) were added into DMEM medium. Two hours later, 20% of FBS (Fetal Bovine Serum) was added into the medium to stimulate the expression of phosphor-PDGFRβ. Cell lysate from approximately 5×10^5 transfected CHO cells were reacted with anti-phosphor-PDGFRβ or anti-total PDGFRβ antibody in 96 well plates, in the presence of detection antibody, the phosphor-PDGFRβ or total PDGFRβ were detected with Streptavidin-HRP (R&D Systems), followed by chemiluminescent detection.

[2] = biological target: T2, VEGFR2 (Homo sapiens, UniProt P35968); test: VEGFR2 cell-based assay (phospho-VEGFR2 ELISA, transfected CHO cells); conditions: compound at 100 nM, read-out: % VEGFR2 kinase activity remains
T2 construct: expressed in transfected cells; host or cells: CHO cells, pcDNA3.1 plasmid
T2 sequence (P35968 20-1356, species assumed): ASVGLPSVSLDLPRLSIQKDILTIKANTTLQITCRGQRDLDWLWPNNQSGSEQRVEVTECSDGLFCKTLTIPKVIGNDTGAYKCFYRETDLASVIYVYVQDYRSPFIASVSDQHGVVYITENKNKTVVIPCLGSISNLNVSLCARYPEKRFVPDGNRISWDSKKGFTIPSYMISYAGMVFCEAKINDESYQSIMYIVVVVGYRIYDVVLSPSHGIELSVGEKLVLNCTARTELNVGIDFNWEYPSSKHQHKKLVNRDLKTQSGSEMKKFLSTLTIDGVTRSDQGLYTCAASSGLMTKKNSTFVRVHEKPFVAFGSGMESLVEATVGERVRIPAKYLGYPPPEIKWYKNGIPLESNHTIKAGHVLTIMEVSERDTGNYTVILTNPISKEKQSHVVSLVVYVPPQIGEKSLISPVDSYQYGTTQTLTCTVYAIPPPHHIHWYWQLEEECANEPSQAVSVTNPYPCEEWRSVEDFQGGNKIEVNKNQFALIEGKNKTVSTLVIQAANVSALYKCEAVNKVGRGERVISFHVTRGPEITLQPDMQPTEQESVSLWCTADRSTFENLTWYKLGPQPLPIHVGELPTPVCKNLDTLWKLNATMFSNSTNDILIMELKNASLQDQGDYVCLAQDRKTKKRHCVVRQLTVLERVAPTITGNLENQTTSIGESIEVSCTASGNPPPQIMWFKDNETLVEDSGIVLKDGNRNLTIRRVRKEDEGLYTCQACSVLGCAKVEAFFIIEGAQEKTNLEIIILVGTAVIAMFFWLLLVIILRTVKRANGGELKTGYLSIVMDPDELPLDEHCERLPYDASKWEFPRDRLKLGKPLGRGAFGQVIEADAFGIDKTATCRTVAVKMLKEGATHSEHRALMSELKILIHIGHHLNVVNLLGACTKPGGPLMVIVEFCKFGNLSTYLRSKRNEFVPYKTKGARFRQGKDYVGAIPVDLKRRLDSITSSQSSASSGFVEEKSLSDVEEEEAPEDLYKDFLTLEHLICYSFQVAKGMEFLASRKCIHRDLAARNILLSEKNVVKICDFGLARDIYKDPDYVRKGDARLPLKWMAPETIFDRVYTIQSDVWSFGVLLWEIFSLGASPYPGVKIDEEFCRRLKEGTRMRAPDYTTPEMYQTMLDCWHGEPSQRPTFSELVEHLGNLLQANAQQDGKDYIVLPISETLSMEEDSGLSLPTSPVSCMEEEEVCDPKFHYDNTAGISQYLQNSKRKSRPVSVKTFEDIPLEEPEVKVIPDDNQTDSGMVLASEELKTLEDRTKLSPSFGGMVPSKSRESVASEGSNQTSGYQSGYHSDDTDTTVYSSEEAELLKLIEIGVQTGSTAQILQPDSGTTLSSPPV
Description: A standard cell-based assay for VEGFR2 kinase activity can be used to test compounds of this invention and to identify VEGFR2 antagonists.
Specifically, a compound to be tested was first dissolved in DMSO to a concentration of 10 mM and stored at −20° C. The activity of VEGFR2 in cells depends on the phosphorylation level at its intracellular domain induced by the ligand. In order to express VEGFR2 in the cells, full length VEGFR2 sequence was cloned into PC-DNA3.1 vector, the plasmid was then transfected into CHO cells. After 48 hours, the expression of VEGFR2 in transfected CHO cells was confirmed by regular western blotting.
To screen the compounds of this invention, the ELISA kit (R&D Systems) was used. One day before the screening, CHO cells transfected with full length VEGFR2 plasmid were grown in DMEM medium without the presence of serum. On the day of screening, various concentrations of compounds (From 0.5 nM to 500 nM) were added into DMEM medium. Two hours later, 20% of FBS (Fetal Bovine Serum) was added into the medium to stimulate the production of phosphor-VEGFR2. Cell lysate from approximately 5×10^5 transfected CHO cells were reacted with anti-phosphor-VEGFR2 or anti-total VEGFR2 antibody in 96 well plates. In the presence of detection antibody, the phosphor-VEGFR2 or total VEGFR2 were detected with Streptavidin-HRP (R&D Systems) followed by chemiluminescence detection.

[3] = biological target: T3, c-Met (Homo sapiens, UniProt P08581); test: c-Met cell-based assay (phospho-c-Met ELISA, A549 cells); conditions: compound at 100 nM
T3 construct: endogenous in cells; host or cells: A549 cells
T3 sequence (P08581 25-1390): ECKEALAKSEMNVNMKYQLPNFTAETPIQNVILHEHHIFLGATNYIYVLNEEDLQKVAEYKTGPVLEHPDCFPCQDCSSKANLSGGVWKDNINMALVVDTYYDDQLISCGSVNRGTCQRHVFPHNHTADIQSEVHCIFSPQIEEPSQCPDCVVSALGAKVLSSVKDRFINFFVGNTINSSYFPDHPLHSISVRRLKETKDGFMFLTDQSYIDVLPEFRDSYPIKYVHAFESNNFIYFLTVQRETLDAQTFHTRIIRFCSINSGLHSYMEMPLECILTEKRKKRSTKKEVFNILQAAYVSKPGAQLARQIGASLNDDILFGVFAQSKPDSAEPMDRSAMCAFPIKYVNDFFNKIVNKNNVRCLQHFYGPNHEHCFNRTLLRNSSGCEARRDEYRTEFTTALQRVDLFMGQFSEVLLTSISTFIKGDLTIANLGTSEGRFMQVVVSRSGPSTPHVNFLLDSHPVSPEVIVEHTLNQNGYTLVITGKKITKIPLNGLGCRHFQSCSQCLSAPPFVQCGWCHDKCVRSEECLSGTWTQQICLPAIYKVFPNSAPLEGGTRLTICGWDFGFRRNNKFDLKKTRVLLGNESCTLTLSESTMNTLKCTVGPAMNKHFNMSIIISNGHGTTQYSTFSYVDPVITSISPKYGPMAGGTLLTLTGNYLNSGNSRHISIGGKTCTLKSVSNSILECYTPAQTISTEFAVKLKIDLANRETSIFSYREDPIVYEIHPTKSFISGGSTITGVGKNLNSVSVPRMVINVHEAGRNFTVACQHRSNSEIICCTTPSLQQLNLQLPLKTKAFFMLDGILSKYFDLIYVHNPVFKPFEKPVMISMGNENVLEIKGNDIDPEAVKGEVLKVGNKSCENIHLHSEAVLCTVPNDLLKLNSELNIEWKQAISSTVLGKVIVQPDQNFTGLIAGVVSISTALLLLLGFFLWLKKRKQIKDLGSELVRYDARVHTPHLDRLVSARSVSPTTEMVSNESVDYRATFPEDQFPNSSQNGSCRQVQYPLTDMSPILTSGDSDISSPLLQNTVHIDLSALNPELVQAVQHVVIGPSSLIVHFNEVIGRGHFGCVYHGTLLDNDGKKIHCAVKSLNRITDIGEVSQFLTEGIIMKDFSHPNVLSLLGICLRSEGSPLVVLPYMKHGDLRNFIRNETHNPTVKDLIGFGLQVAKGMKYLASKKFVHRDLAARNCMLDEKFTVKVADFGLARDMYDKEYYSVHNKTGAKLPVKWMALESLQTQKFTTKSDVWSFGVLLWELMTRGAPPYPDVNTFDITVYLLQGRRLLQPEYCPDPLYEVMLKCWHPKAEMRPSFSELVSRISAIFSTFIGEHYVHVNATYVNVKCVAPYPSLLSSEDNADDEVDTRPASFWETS
Description: A procedure for standard cell-based assay for c-Met kinase activity can be used to test compounds of this invention for their inhibitory effect on this kinase and to identify c-Met antagonists.
Specifically, a compound to be tested was first dissolved in DMSO to a concentration of 10 mM and stored at −20° C. The activity of c-Met in cells depends on the phosphorylation level at its intracellular domain induced by its ligand, Hepatocyte growth factor (HGF). In order to induce the cells to produce phosphate c-Met, paracrine HGF-dependent NSCLC (None Small Cell Lung Cancer) A549 cells were grown in DMEM with 10% FBS.
To screen compounds of this invention for their inhibitory effect on c-Met kinase, the ELISA kit (R&D Systems) was used. One day before screening procedure, A549 cells were grown in DMEM without the presence of serum. On the day of screening procedure, various concentrations of compounds (from 0.5 nM to 500 nM) were added into the culture medium. Two hours later, 20% of FBS (Fetal Bovine Serum) was added into the medium to stimulate the expression of phosphor-c-Met. After 20 minutes, cell lysate from approximately 5×10^5 A549 cells were reacted with anti-phosphor-c-Met or anti total c-Met antibody in 96 well plates. In the presence of detection antibody, the phosphor-c-Met or total c-Met can be detected with Streptavidin-HRP (R&D Systems) followed by chemiluminescence detection.

Compound: Cl.O=C(Nc1ccc(Cl)cc1F)Nc1cccc2c1ccn2Cc1ccnc2[nH]ccc12 [Example 55, 1-(2-Fluoro-4-chlorophenyl)-3-[1-(1H-pyrrolo[2,3-b]pyridin-4-ylmethyl)-1H-indol-4-yl]urea hydrochloride]
- remaining activity at 0.1 µM [1]: ≥ 70%
- remaining activity at 0.1 µM [2]: < 70%
- % c-Met kinase activity remains [3]: B (the percentage is greater or equal to 70%)

Compound: Cl.N#Cc1ccc(NC(=O)Nc2cccc3c2ccn3Cc2ccnc3[nH]ccc23)cc1 [Example 54, 1-(4-Cyanophenyl)-3-[1-(1H-pyrrolo[2,3-b]pyridin-4-ylmethyl)-1H-indol-4-yl]urea hydrochloride]
- remaining activity at 0.1 µM [1]: ≥ 70%
- remaining activity at 0.1 µM [2]: ≥ 70%
- % c-Met kinase activity remains [3]: B (the percentage is greater or equal to 70%)

Compound: COc1ccc(F)c(NC(=O)Nc2cccc3c2ccn3Cc2c[nH]c3ncccc23)c1 [Example 31, 1-(2-Fluoro-5-methoxyphenyl)-3-[1-(1H-pyrrolo[2,3-b]pyridin-3-ylmethyl)-1H-indol-4-yl]urea hydrochloride]
- remaining activity at 0.1 µM [1]: ≥ 70%

Compound: Cl.O=C(Nc1cc(Br)ccc1F)Nc1cccc2c1ccn2Cc1c[nH]c2ncccc12 [Example 30, 1-(2-Fluoro-5-bromophenyl)-3-[1-(1H-pyrrolo[2,3-b]pyridin-3-ylmethyl)-1H-indol-4-yl]urea hydrochloride]
- remaining activity at 0.1 µM [1]: ≥ 70%
- remaining activity at 0.1 µM [2]: < 70%
- % c-Met kinase activity remains [3]: B (the percentage is greater or equal to 70%)

Compound: Cl.O=C(Nc1ccc(Br)cc1)Nc1cccc2c1ccn2Cc1c[nH]c2ncccc12 [Example 13, 1-(4-Bromophenyl)-3-[1-(1H-pyrrolo[2,3-b]pyridin-3-ylmethyl)-1H-indol-4-yl]urea hydrochloride]
- remaining activity at 0.1 µM [1]: ≥ 70%
- remaining activity at 0.1 µM [2]: ≥ 70%
- % c-Met kinase activity remains [3]: A (the percentage of kinase activity remains is below 70%)

Compound: Cl.O=C(Nc1cccc(OC(F)(F)F)c1)Nc1cccc2c1ccn2Cc1c[nH]c2ncccc12 [Example 21, 1-(3-Trifluoromethoxyphenyl)-3-[1-(1H-pyrrolo[2,3-b]pyridin-3-ylmethyl)-1H-indol-4-yl]urea hydrochloride]
- remaining activity at 0.1 µM [1]: ≥ 70%
- remaining activity at 0.1 µM [2]: ≥ 70%
- % c-Met kinase activity remains [3]: B (the percentage is greater or equal to 70%)

Compound: O=C(Nc1ccc(Cl)cc1)Nc1cccc2c1ccn2Cc1c[nH]c2ncccc12 [Example 10, 1-(4-Chlorophenyl)-3-[1-(1H-pyrrolo[2,3-b]pyridin-3-ylmethyl)-1H-indol-4-yl]urea hydrochloride]
- remaining activity at 0.1 µM [1]: ≥ 70%
- remaining activity at 0.1 µM [2]: ≥ 70%
- % c-Met kinase activity remains [3]: B (the percentage is greater or equal to 70%)

Compound: COc1ccc(OC)c(NC(=O)Nc2cccc3c2ccn3Cc2c[nH]c3ncccc23)c1.Cl [Example 32, 1-(2,5-Dimethoxyphenyl)-3-[1-(1H-pyrrolo[2,3-b]pyridin-3-ylmethyl)-1H-indol-4-yl]urea hydrochloride]
- remaining activity at 0.1 µM [1]: ≥ 70%
- remaining activity at 0.1 µM [2]: < 70%
- % c-Met kinase activity remains [3]: A (the percentage of kinase activity remains is below 70%)

Compound: Cl.O=C(Nc1ccc(Cl)cc1F)Nc1cccc2c1ccn2Cc1c[nH]c2ncccc12 [Example 28, 1-(2-Fluoro-4-chlorophenyl)-3-[1-(1H-pyrrolo[2,3-b]pyridin-3-ylmethyl)-1H-indol-4-yl]urea hydrochloride]
- remaining activity at 0.1 µM [1]: ≥ 70%
- remaining activity at 0.1 µM [2]: < 70%
- % c-Met kinase activity remains [3]: A (the percentage of kinase activity remains is below 70%)

Compound: N#Cc1cccc(NC(=O)Nc2cccc3c2ccn3Cc2ccnc3[nH]ccc23)c1 [Example 53, 1-(3-Cyanophenyl)-3-[1-(1H-pyrrolo[2,3-b]pyridin-4-ylmethyl)-1H-indol-4-yl]urea hydrochloride]
- remaining activity at 0.1 µM [1]: ≥ 70%

Compound: O=C(Nc1ccccc1C(F)(F)F)Nc1cccc2c1ccn2Cc1ccnc2[nH]ccc12 [Example 50, 1-(2-Trifluoromethylphenyl)-3-[1-(1H-pyrrolo[2,3-b]pyridin-4-ylmethyl)-1H-indol-4-yl]urea hydrochloride]
- remaining activity at 0.1 µM [1]: ≥ 70%

Compound: Cl.O=C(Nc1ccccc1Br)Nc1cccc2c1ccn2Cc1c[nH]c2ncccc12 [Example 11, 1-(2-Bromophenyl)-3-[1-(1H-pyrrolo[2,3-b]pyridin-3-ylmethyl)-1H-indol-4-yl]urea hydrochloride]
- remaining activity at 0.1 µM [2]: ≥ 70%
- % c-Met kinase activity remains [3]: A (the percentage of kinase activity remains is below 70%)

Compound: Cl.O=C(Nc1ccccc1F)Nc1cccc2c1ccn2Cc1c[nH]c2ncccc12 [Example 5, 1-(2-Fluorophenyl)-3-[1-(1H-pyrrolo[2,3-b]pyridin-3-ylmethyl)-1H-indol-4-yl]urea hydrochloride]
- remaining activity at 0.1 µM [2]: ≥ 70%
- % c-Met kinase activity remains [3]: A (the percentage of kinase activity remains is below 70%)

Compound: Cl.O=C(Nc1ccccc1F)Nc1cccc2c1ccn2Cc1ccnc2[nH]ccc12 [Example 34, 1-(2-Fluorophenyl)-3-[1-(1H-pyrrolo[2,3-b]pyridin-4-ylmethyl)-1H-indol-4-yl]urea hydrochloride]
- remaining activity at 0.1 µM [2]: < 70%
- % c-Met kinase activity remains [3]: B (the percentage is greater or equal to 70%)

Compound: Cl.O=C(Nc1ccccc1)Nc1cccc2c1ccn2Cc1ccnc2[nH]ccc12 [Example 33, 1-Phenyl-3-[1-(1H-pyrrolo[2,3-b]pyridin-4-ylmethyl)-1H-indol-4-yl]urea hydrochloride]
- remaining activity at 0.1 µM [2]: < 70%
- % c-Met kinase activity remains [3]: B (the percentage is greater or equal to 70%)

Compound: O=C(Nc1cccc(Cl)c1)Nc1cccc2c1ccn2Cc1c[nH]c2ncccc12 [Example 9, 1-(3-Chlorophenyl)-3-[1-(1H-pyrrolo[2,3-b]pyridin-3-ylmethyl)-1H-indol-4-yl]urea hydrochloride]
- remaining activity at 0.1 µM [2]: < 70%
- % c-Met kinase activity remains [3]: B (the percentage is greater or equal to 70%)

Compound: Cl.O=C(Nc1cccc(F)c1)Nc1cccc2c1ccn2Cc1c[nH]c2ncccc12 [Example 6, 1-(3-Fluorophenyl)-3-[1-(1H-pyrrolo[2,3-b]pyridin-3-ylmethyl)-1H-indol-4-yl]urea hydrochloride]
- remaining activity at 0.1 µM [2]: < 70%
- % c-Met kinase activity remains [3]: B (the percentage is greater or equal to 70%)

Compound: COc1ccc(NC(=O)Nc2cccc3c2ccn3Cc2c[nH]c3ncccc23)cc1.Cl [Example 19, 1-(4-Methoxyphenyl)-3-[1-(1H-pyrrolo[2,3-b]pyridin-3-ylmethyl)-1H-indol-4-yl]urea hydrochloride]
- remaining activity at 0.1 µM [2]: < 70%
- % c-Met kinase activity remains [3]: A (the percentage of kinase activity remains is below 70%)

Compound: Cl.O=C(Nc1cc(Br)ccc1F)Nc1cccc2c1ccn2Cc1ccnc2[nH]ccc12 [Example 57, 1-(2-Fluoro-5-bromophenyl)-3-[1-(1H-pyrrolo[2,3-b]pyridin-4-ylmethyl)-1H-indol-4-yl]urea hydrochloride]
- remaining activity at 0.1 µM [2]: < 70%
- % c-Met kinase activity remains [3]: A (the percentage of kinase activity remains is below 70%)
